Test results taken from ChEMBL document CHEMBL1130399 (J Med Chem, 1997).

Experiments:
Cannabinoid receptor [1] = molecular target: T1, Cannabinoid receptor (Rattus norvegicus, UniProt Q9QZN9+P20272); experiment: Binding affinity towards cannabinoid receptor using [3H]CP-55940 as radioligand in rat brain membrane; format: cell membranes
Cannabinoid receptor [2] = molecular target: T1, Cannabinoid receptor; experiment: Binding affinity towards cannabinoid receptor using [3H]SR-141,716A as radioligand in rat brain membrane; format: cell membranes
Mus musculus [3] = organism: Mus musculus; experiment: Maximal degree of inhibition of electrically evoked contractions in a mouse vas deferens assay; format: functional
Mus musculus [4] = organism: Mus musculus; experiment: Inhibition of rectal temperature(RT) in mice was determined; format: functional
Mus musculus [5] = organism: Mus musculus; experiment: Inhibition of ring immobility(RI) in mice was determined; format: functional
Mus musculus [6] = organism: Mus musculus; experiment: Effective concentration that causes twitch inhibition in a mouse vas deferens assay; format: functional, organism-based
Mus musculus [7] = organism: Mus musculus; experiment: Inhibition of spontaneous activity(SA) in mice was determined; format: functional
Mus musculus [8] = organism: Mus musculus; experiment: Inhibition of tail flick response[…] in mice was determined; format: functional
Mus musculus [9] = organism: Mus musculus; experiment: Maximum possible effect for antinociception as measured by the tail flick response (TF); format: functional
Mus musculus [10] = organism: Mus musculus; experiment: Maximum possible effect for inhibition of spontaneous activity (SA); format: functional
Mus musculus [11] = organism: Mus musculus; experiment: Maximum possible effect for ring immobility (RI); format: functional
Mus musculus [12] = organism: Mus musculus; experiment: Hypothermia measured as changes in rectal temperature (RT)

Structure (SMILES)	Ki (Cannabinoid receptor [1])	Ki (Cannabinoid receptor [2])	Emax (Mus musculus [3])	ED50 (Mus musculus [4])	ED50 (Mus musculus [5])	EC50 (Mus musculus [6])	ED50 (Mus musculus [7])	ED50 (Mus musculus [8])	MPE (Mus musculus [9])	MPE (Mus musculus [10])	MPE (Mus musculus [11])	rectal temperature change (Mus musculus [12])
CCCCCCC(C)(C)/C=C\C/C=C\C/C=C\C/C=C\CCCC(=O)N[C@@H](C)CO	5 nM	161 nM	67.2%	5 mg/kg	2.5 mg/kg	28.3 nM	2.6 mg/kg	4.8 mg/kg	100%	90%	80%	-2 °C
CCCCCCC(C)(C)/C=C\C/C=C\C/C=C\C/C=C\CCCC(=O)NCCO	1.9 nM	153 nM	68.3%	2.9 mg/kg	1 mg/kg	59.7 nM	1.5 mg/kg	1.7 mg/kg	91%	90%	74%	-3.5 °C
CCCCCCC(C)(C)/C=C\C/C=C\C/C=C\C/C=C\CCCC(=O)NCCOC	3.9 nM	54 nM	44.6%	–	5.7 mg/kg	36 nM	4 mg/kg	13.3 mg/kg	100%	98%	86%	-1.5 °C
CCCCCCC(C)(C)/C=C\C/C=C\C/C=C\C/C=C\CCCC(=O)NCCC	1.5 nM	31 nM	65.3%	–	–	11.7 nM	1.2 mg/kg	6.3 mg/kg	–	–	81%	-1.5 °C
CCCCCCC(C)(C)/C=C\C/C=C\C/C=C\C/C=C\CCCC(=O)N[C@H](C)CO	1.7 nM	220 nM	65.2%	6 mg/kg	2.4 mg/kg	60.6 nM	1.1 mg/kg	1 mg/kg	100%	95%	85%	-2.8 °C
CCCCC/C=C\C/C=C\C/C=C\C/C=C\CCCC(=O)NC[C@H](C)O	57 nM	–	71.7%	–	–	36.1 nM	–	–	–	–	–	–
CCCCC/C=C\C/C=C\C/C=C\C/C=C\CCCC(=O)NCCC	2.6 nM	238 nM	51.2%	–	–	10.9 nM	–	–	–	–	–	–
CCCCC/C=C\C/C=C\C/C=C\C/C=C\CCCC(=O)NCCOC	44 nM	466 nM	34%	–	–	3 nM	–	–	–	–	–	–
CCCCC/C=C\C/C=C\C/C=C\C/C=C\CCCC(=O)NCCO [ANANDAMIDE]	–	–	100%	–	–	52.7 nM	–	6.2 mg/kg	–	–	–	–
CCCCC/C=C\C/C=C\C/C=C\C/C=C\CCCC(=O)N[C@H](C)CO [METHANANDAMIDE]	–	–	100%	–	–	10.1 nM	–	–	–	–	–	–
